This note sets out measurements from patent publication US20210254138A1, “SIALIC ACID TRANSPORTER PROTEINS AS BIOMARKERS AND DRUG TARGETS” (Quadram Institute Bioscience, priority 2018, published 2021).

Assay [1] concerns the target T1, E. coli sialic acid aldolase (EcNanA) (Escherichia coli, UniProt P0A6L4).
T1 construct: purchased Carbosynth, UK CAS: 9027-60-5 (catalogue number not given)
Kind of assay: Sialic acid aldolase activity assay coupled to lactate dehydrogenase, EcNanA. The conditions noted are these: 10 mM sialic acid, 37° C., pH 7.0, A340 nm. Type of assay: biochemical. How it is done: Aldolase cleavage was measured by monitoring the decrease in absorbance at 340 nm (A340 nm) as NADH is converted to NAD by lactate dehydrogenase in a coupled reaction where pyruvate is released from sialic acid by the aldolase. Reactions were performed in a 100 μl volume with final concentrations of 150 μM NADH (Sigma, St Louis, USA), 0.5 U LDH (Sigma, St Louis, USA), 10 mM sialic acid (Neu5Ac or 2,7-anhydro-Neu5Ac) and 1.5 μg purified RgNanA or EcNanA (E. coli aldolase CAS: 9027-60-5, Carbosynth, UK) in 50 mM Na-phosphate buffer (pH 7.0). The reactions were performed at 37° C. and monitored using FLUOstar OPTIMA (BMG LABTECH). For kinetics experiments, the sialic acid concentration was varied at 20, 10, 5, 4, 2, 1, 0.4, 0.2, 0.1 mM and the initial rate of reaction determined for each concentration in triplicate before analysis was performed by fitting the data to a Michaelis-Menten using Graph Pad Prism (V 5.03). […]
The first step of sialic acid metabolism is the conversion of sialic acid to ManNAc and pyruvate catalysed by a sialic acid aldolase (NanA). […] The substrate specificity of RgNanA was determined using a coupled activity assay where pyruvate released during the conversion of sialic acid to ManNAc is converted to lactate by a lactate dehydrogenase and the subsequent loss of absorbance at 340 nm measured as NADH is converted to NAD^+. […]

Assay [2] has as its target T2, RUMGNA_02695 (RgNanOx, oxidoreductase) (Mediterraneibacter gnavus, UniProt A7B558).
T2 construct: the full length RgNanA and full length RUMGNA_02695 were amplified from R. gnavus ATCC 29149 gDNA; His6 (pHISTEV vector) (N); made in house; host or cells: E. coli BL21
The assay can be described thus: RUMGNA_02695 enzymatic activity assay. Type of assay: biochemical, R. gnavus ATCC 29149. How it is done: To assay RUMGNA_02695 activity against 2,7-anhydro-Neu5Ac, the purified recombinant protein was incubated in 100 μl reactions at 37° C. overnight with 1 mM 2,7-anhydro-Neu5Ac, 50 mM sodium phosphate buffer pH 7.0 and 500 μM NADH, NAD, FAD or no cofactor. The reactions were dried using a Concentrator Plus (Eppendorf) for 1 h. Samples were then resuspended in 50 μl of water and 50 μl of reaction buffer (1.74 mg of 1,2-Diamino-4,5-methylenedioxybenzene dihydrochloride (Carbosynth, UK), 324.6 μl MilliQ water, 88.6 μl glacial acetic acid, 58.2 μl of β-Mercaptoethanol and 79.3 μl of sodium hydrosulphite) and incubated for 2 h at 55° C. in the dark. The samples were then centrifuged for 1 min and filtered using a 0.45 μm filter into a glass HPLC vial and directly analysed by HPLC.
DMB-labelled samples were analysed by injecting 10 μl onto a Luna 5 μm C-18(2) LC column 250×4.6 mm (Phenomenex) at 1 ml/min. Mobile phases methanol/acetonitrile/water were used for separation of fluorescently labelled sialic acids. The settings of the fluorescence detector were 373 nm excitation and 448 nm emission. Samples were run alongside a Neu5Ac standard.
To determine the kinetic parameters of RUMGNA_02695 enzymatic reaction, a coupled reaction with lactate dehydrogenase and sialic acid aldolase was carried out as described above but with 15 μg of RgNanA and 10 μg RUMGNA_02695 in each reaction. For the kinetics assays, 1, 0.4, 0.2, 0.1, 0.04, 0.02 and 0.01 mM 2,7-anhydro-Neu5Ac was used and the initial rate of reaction determined for each concentration in triplicate before analysis was performed by fitting the data to a Michaelis-Menten using Graph Pad Prism (V 5.03).
Electrospray ionisation spray mass spectrometry (ESI-MS) analysis was performed using the Applied Biosystems 4000 Q-TRAP. The full 100 μl reaction was diluted with 500 ul of 50% Acetonitrile and 0.1% formic acid and samples analysed in negative ion mode using direct injection.

The mark [3] stands for this setting: coupled reaction with excess aldolase and lactate dehydrogenase.

What is called Km is the substrate concentration at which the rate is half of its maximum. One may read the kcat as the maximal rate divided by the concentration of active sites.

T2 sequence (A7B558 whole entry): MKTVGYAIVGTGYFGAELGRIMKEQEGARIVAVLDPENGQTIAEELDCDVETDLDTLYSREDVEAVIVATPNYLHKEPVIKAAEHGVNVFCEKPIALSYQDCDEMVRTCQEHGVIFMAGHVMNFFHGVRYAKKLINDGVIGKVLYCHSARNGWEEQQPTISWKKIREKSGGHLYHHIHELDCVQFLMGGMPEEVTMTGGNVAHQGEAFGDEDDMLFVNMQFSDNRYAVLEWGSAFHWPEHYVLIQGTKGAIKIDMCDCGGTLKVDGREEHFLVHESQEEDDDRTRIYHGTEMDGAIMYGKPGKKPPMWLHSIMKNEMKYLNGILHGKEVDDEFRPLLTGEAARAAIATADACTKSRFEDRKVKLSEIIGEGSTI
T1 sequence (P0A6L4 whole entry): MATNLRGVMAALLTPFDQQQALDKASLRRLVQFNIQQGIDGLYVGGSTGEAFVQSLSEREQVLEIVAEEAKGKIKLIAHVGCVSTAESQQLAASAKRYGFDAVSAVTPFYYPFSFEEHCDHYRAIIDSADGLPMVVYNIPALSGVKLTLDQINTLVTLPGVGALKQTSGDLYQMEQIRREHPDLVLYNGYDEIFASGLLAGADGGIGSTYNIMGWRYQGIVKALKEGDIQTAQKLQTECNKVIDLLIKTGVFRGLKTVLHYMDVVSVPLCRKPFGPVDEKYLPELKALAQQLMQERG

With `CC(=O)N[C@H]1C2OC(C(=O)O)(C[C@@H]1O)O[C@@H]2[C@H](O)CO` (some centres unmarked) [2,7-anhydro-Neu5Ac], in assay [1], the “aldolase activity against substrate” value is on record as “neither enzyme showed activity”. Moreover, in assay [2] (1 mM substrate, in the presence of NAD+ or NADH, not with FAD or without cofactor), the “reaction product by HPLC after DMB labelling” value is “Neu5Ac was observed as a reaction product”. In assay [2] (setting [3]), the Km amounted to 74 ± 14 µM and the catalytic constant (kcat) is 0.0824 ± 0.0043 s⁻¹.

In the case of `CC(=O)N[C@H]1[C@H]([C@H](O)[C@H](O)CO)OC(O)(C(=O)O)C[C@@H]1O` (some centres unmarked) [Neu5Ac, N-acetylneuraminic acid], the “aldolase activity against substrate” value in assay [1] is on record as “showed activity”.
